Literature values in patent US10052295B2, “Method, composition and package for bowel cleansing” (priority 2011, dated 2018).

SMILES: OC[C@@H](O)[C@H](O)[C@@H](O)CO [xylitol]
- toxic effects in humans (doses as high as 50 grams per day for over two years (Makinen 1976)): no toxic effects
- watery feces (doses over 35 grams, compared with erythritol (Storey 2006)): significantly more watery feces

SMILES: OC[C@@H](O)[C@@H](O)CO [erythritol]
- GI symptoms (doses as high as 50 mg (Storey 2006)): not reported to produce any significant GI symptoms
